Experimental data as given in patent US4382889A, “Epoxysuccinic acid derivatives” (Taisho Pharmaceutical Co., Ltd., priority 1979, dated 1983).

molecular target: T1, papain (Carica papaya, UniProt P00784); assay: Papain inhibitory activity (method of K. Hanada et al); assay type: biochemical; conditions: papain 80 ug/ml, Sigma, 2 x cry.
T1 construct: purchased Sigma Chem. Co
T1 sequence (P00784 134-345): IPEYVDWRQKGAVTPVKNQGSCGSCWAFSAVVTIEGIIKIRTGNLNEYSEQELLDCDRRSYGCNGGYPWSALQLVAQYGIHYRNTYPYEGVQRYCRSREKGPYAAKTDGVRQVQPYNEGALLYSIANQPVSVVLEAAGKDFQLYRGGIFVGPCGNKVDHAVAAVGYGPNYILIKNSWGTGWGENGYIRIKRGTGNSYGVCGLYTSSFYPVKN
Protocol: Papain inhibitory activity of the compounds of the present invention was assayed by the method of K. Hanada et al, [Argric. Biol. Chem., 42, No. 3, 523(1978)] using papain (80 ug/ml, Sigma Chem. Co., 2 x cry.).

SMILES | Papain ID50 (amount of inhibitor for 50% inhibition) [µg]
COC(=O)CC[C@H](NC(=O)[C@H](CC(C)C)NC(=O)C1OC1C(=O)O)C(=O)OC (mixture of isomers) [Compound 47, N-(DL-3-transcarboxyoxirane-2-carbonyl)-L-leucyl-L-glutamic acid dimethyl ester] | 0.260
COC(=O)C1OC1C(=O)N[C@@H](CC(C)C)C(=O)N[C@@H](CCSC)C(=O)OC (some centres unmarked) [Compound 28] | 0.156
CC(C)C[C@H](NC(=O)C1OC1C(=O)OCc1ccccc1)C(=O)N[C@@H](CC(C)C)C(=O)OCc1ccccc1 (mixture of isomers) [Compound 17, N-(DL-3-trans-benzyloxycarbonyloxirane-2-carbonyl)-L-leucyl-L-leucine benzyl ester] | 0.255
CCOC(=O)C1OC1C(=O)N[C@@H](CC(C)C)C(=O)NC1CCCC1 (some centres unmarked) [Compound 6] | 0.410
CCC(C)[C@H](NC(=O)C1OC1C(=O)OCc1ccccc1)C(=O)N[C@H](C(=O)OC)C(C)C (some centres unmarked) [Compound 41] | 0.272
CCC(C)[C@H](NC(=O)C1OC1C(=O)OCc1ccccc1)C(=O)N[C@@H](Cc1ccc(O)cc1)C(=O)OC (some centres unmarked) [Compound 39] | 0.408
COC(=O)[C@H](CCSC)NC(=O)[C@H](CC(C)C)NC(=O)C1OC1C(=O)OCc1ccccc1 (some centres unmarked) [Compound 27] | 0.216
CCCNC(=O)[C@H](CC(C)C)NC(=O)C1OC1C(=O)OCC (some centres unmarked) [Compound 9] | 0.313
CCOC(=O)C1OC1C(=O)N[C@@H](CC(C)C)C(=O)NC1CC1 (some centres unmarked) [Compound 5] | 0.284
COC(=O)[C@@H](CC(C)C)NC(=O)[C@H](CC(C)C)NC(=O)[C@@H]1O[C@H]1C(=O)OCc1ccccc1 [Compound 24, N-(D-3-trans-benzyloxycarbonyloxirane-2-carbonyl)-L-leucyl-D-leucine methyl ester] | 0.219
CC(C)C[C@H](NC(=O)C1OC1C(=O)OCc1ccccc1)C(=O)N(C)C (mixture of isomers) [Compound 11, N-[N'-(DL-3-trans-benzyloxycarbonyloxirane-2-carbonyl)-L-leucyl]dimethylamine] | 0.184
CCOC(=O)C1OC1C(=O)N[C@@H](CC(C)C)C(=O)NC1CCCCC1 (mixture of isomers) [Compound 1, N-[N'-(DL-3-trans-ethoxycarbonyloxirane-2-carbonyl)-L-leucyl]cyclohexylamine] | 0.439
CC(C)C[C@H](NC(=O)C1OC1C(=O)OCc1ccccc1)C(=O)N(C)c1ccccc1 (mixture of isomers) [Compound 10, N-[N'-(DL-3-trans-benzyloxycarbonyloxirane-2-carbonyl)-L-leucyl]-N-methylaniline] | 0.510
CCOC(=O)C1OC1C(=O)N[C@@H](CC(C)C)C(=O)NCCC(C)C (some centres unmarked) [Compound 7] | 0.410
CCCCCCCCCCNC(=O)[C@H](CC(C)C)NC(=O)C1OC1C(=O)OCC (mixture of isomers) [Compound 2, N-[N'-(DL-3-trans-ethoxycarbonyloxirane-2-carbonyl)-L-leucyl]-n-decylamine] | 0.227
COC(=O)[C@H](CC(C)C)NC(=O)[C@@H](CC(C)C)NC(=O)C1OC1C(=O)OCc1ccccc1 (mixture of isomers) [Compound 22, N-(DL-3-trans-benzyloxycarbonyloxirane-2-carbonyl)-D-leucyl-L-leucine methyl ester] | 8.28
CC[C@H](C)[C@H](NC(=O)[C@H](CC(C)C)NC(=O)C1OC1C(=O)OCc1ccccc1)C(=O)OC (mixture of isomers) [Compound 21, N-(DL-3 trans-benzyloxycarbonyloxirane-2-carbonyl)-L-leucyl-L-isoleucine methyl ester] | 0.169
